# Assay results taken from patent US11046699B2, “Pyrazolo-pyrimidin-amino-cycloalkyl compounds and their therapeutic uses” (RAPT THERAPEUTICS, INC., priority 2018, dated 2021).
# pIC50: −log10 of the molar value. Like-named read-outs stand apart in the source and are kept apart here.
# Biological target: GCN2 (Homo sapiens, UniProt Q9P2K8)
# Assay: GCN2 enzymatic endpoint assay: phosphorylation of GFP-eIF2α measured by TR-FRET (Lanthascreen)
# Type: biochemical
# Procedure: The Enzymatic assay was run as an endpoint assay to quantify the activity of the serine/threonine GCN2 kinase by way of measuring phosphorylation of its natural substrate, eiF2α.
# The enzymatic reaction was initiated by incubating with 2 μM ATP and 80 nM of GFP labeled eiF2a substrate at room temperature and then stopped after 90 minutes with EDTA. The amount of phosphorylated eIF2α is determined by TR-FRET (Lanthascreen). A terbium labeled antibody associates with the phosphorylated substrate resulting in an increased TR-FRET value. Activity was calculated as the ratio of the acceptor (fluorescein) signal at 520 nm wavelength to the donor (terbium) signal 495 nm. The amount of antibody that is bound to the tracer is directly proportional to the amount of phosphorylated substrate present, and in this manner, kinase activity can be detected and measured by an increase in the TR-FRET value.
# Compound addition by D300
# 5 μL enzyme solution in assay buffer
# 5 μL substrate/ATP mixture in assay buffer
# 5 μL stop/detection mix in antibody dilution buffer
# [1] = tested as described in Example 77, compound and/or hydrochloride, dihydrochloride or trifluoroacetic acid salt, read-out: IC 50 Activity
# [2] = GCN2 biochemical IC50, 4 nM GCN2, 2 μM ATP, 80 nM GFP-eIF2α, 90 min RT, read-out: GCN2 activity
# Sequence of GCN2 (Q9P2K8 whole entry): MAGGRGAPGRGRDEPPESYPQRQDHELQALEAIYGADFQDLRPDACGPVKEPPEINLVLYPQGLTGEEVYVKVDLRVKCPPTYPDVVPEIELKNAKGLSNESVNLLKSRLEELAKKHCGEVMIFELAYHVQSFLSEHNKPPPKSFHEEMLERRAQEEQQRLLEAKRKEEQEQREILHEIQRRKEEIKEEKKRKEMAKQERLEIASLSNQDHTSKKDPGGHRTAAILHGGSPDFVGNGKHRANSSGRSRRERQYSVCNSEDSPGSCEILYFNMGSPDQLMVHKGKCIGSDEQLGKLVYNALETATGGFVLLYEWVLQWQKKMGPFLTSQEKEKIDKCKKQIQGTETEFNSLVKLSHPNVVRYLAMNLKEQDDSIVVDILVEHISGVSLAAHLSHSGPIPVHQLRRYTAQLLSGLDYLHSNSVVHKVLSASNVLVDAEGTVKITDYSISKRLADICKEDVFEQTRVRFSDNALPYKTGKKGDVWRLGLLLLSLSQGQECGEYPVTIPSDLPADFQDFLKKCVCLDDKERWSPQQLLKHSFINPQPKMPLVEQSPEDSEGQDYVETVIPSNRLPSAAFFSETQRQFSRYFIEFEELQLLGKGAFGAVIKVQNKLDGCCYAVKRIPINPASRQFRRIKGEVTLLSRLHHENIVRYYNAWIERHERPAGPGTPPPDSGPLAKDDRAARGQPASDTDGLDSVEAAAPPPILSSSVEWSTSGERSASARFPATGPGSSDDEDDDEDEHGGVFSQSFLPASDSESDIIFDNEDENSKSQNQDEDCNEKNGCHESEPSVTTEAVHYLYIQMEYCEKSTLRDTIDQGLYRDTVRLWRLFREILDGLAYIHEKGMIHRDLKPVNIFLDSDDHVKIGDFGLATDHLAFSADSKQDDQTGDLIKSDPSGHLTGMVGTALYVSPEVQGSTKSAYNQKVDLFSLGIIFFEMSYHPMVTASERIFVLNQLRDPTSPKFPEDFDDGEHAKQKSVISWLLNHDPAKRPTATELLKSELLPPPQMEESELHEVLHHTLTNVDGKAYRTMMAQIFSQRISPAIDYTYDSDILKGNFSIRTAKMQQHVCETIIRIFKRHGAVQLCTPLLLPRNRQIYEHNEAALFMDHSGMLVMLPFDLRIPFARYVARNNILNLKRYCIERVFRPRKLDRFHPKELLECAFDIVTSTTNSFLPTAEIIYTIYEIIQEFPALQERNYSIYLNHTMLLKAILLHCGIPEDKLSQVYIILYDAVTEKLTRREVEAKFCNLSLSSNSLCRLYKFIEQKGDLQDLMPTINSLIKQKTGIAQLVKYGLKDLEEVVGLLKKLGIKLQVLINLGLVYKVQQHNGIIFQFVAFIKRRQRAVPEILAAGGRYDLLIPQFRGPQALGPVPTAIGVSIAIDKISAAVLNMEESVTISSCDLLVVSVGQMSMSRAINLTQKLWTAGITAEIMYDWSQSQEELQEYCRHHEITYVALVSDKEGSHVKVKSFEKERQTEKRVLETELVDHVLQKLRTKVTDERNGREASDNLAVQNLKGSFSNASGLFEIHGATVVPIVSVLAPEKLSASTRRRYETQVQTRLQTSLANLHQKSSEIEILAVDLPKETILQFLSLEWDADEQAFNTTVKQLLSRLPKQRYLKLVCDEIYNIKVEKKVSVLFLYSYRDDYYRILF
pIC50 [1],pIC50 [2],Structure (SMILES)
6.70 to 7.60,,"OC1CC(Nc2ncc3c(Br)nn(-c4cc(F)c5ncccc5c4)c3n2)C1 (stereo not shown) [3-[[3-bromo-1-(8-fluoro-6-quinolyl)pyrazolo[3,4-d]pyrimidin-6-yl]amino] cyclobutanol]"
,6.70 to 7.60,"CNC(=O)[C@]1(C)CC[C@@H](Nc2ncc3c(Br)nn(-c4cc(Cl)cc(CO)c4)c3n2)C1 [Example 46, (1R,3R)-3-((3-bromo-1-(3-chloro-5-(hydroxymethyl)phenyl)-1H-pyrazolo[3,4-d]pyrimidin-6-yl)amino)-N,1-dimethylcyclopentane-1-carboxamide; 2,2,2-trifluoroacetic acid]"
6.70 to 7.60,,"Cc1nnc(-c2ccc(-n3nc(Br)c4cnc(N[C@@H]5CC[C@@](C)(C(=O)NCC(F)F)C5)nc43)cc2)s1 [(1R,3R)-3-[[3-bromo-1-[4-(5-methyl-1,3,4-thiadiazol-2-yl)phenyl]pyrazolo [3,4-d]pyrimidin-6-yl]amino]-N-(2,2-difluoroethyl)-1-methyl-cyclopentane-carboxamide]"
6.70 to 7.60,,"C[C@@]1(C(=O)N2CCN3C(=O)COCC3C2)CC[C@@H](Nc2ncc3c(Br)nn(-c4cc(F)c5ncccc5c4)c3n2)C1 (stereo partly drawn) [8-[(1R,3R)-3-[[3-bromo-1-(8-fluoro-6-quinolyl)pyrazolo[3,4-d]pyrimidin-6-yl]amino]-1-methyl-cyclopentane-carbonyl]-6,7,9,9a-tetrahydro-1H-pyrazino[2,1-c][1,4]oxazin-4-one]"
6.70 to 7.60,,"CCS(=O)(=O)N1Cc2cc(-n3nc(Br)c4cnc(N[C@@H]5CC[C@@](C)(C(=O)NC)C5)nc43)cnc2C1 [(1R,3R)-3-[[3-bromo-1-(6-ethylsulfonyl-5,7-dihydropyrrolo[3,4-b]pyridin-3-yl)pyrazolo[3,4-d]pyrimidin-6-yl]amino]-N,1-dimethyl-cyclopentanecarboxamide]"
6.70 to 7.60,,"CNC(=O)[C@]1(C)CC[C@@H](Nc2ncc3c(Br)nn(-c4ccc(-c5nnc(C)s5)c(CC(O)C(F)(F)F)c4)c3n2)C1 (stereo partly drawn) [(1R,3R)-3-[[3-bromo-1-[4-(5-methyl-1,3,4-thiadiazol-2-yl)-3-(3,3,3-trifluoro-2-hydroxy-propyl)phenyl]pyrazolo[3,4-d]pyrimidin-6-yl]amino]-N,1-dimethyl-cyclopentane-carboxamide]"
6.30 to 6.70,,"CS(=O)(=O)CCNC(=O)[C@@H]1CC[C@@H](Nc2ncc3c(Br)nn(-c4cc(F)c5ncccc5c4)c3n2)C1 [(1R,3R)-3-((3-bromo-1-(8-fluoroquinolin-6-yl)-1H-pyrazolo[3,4-d]pyrimidin-6-yl)amino)-N-(2-(methylsulfonyl)ethyl)cyclo-pentane-1-carboxamide]"
6.70 to 7.60,,"CNC(=O)[C@]1(CC(F)F)CC[C@@H](Nc2ncc3c(Br)nn(-c4cc(CC(C)(C)O)c5ncccc5c4)c3n2)C1 [(1R,3R)-3-[[3-bromo-1-[8-(2-hydroxy-2-methyl-propyl)-6-quinolyl]pyrazolo[3,4-d]pyrimidin-6-yl]amino]-1-(2,2-difluoroethyl)-N-methyl-cyclopentanecarboxamide]"
> 7.60,,"CNC(=O)[C@]1(C)CC[C@@H](Nc2ncc3c(Br)nn(-c4cc(Cl)cc(CCO)c4)c3n2)C1 [(1R,3R)-3-[[3-bromo-1-[3-chloro-5-(2-hydroxyethyl)phenyl]pyrazolo [3,4-d]pyrimidin-6-yl]amino]-N,1-dimethyl-cyclopentanecarboxamide]"
6.70 to 7.60,,"CCc1nnc(-c2ccc(-n3nc(Br)c4cnc(N[C@@H]5CC[C@@](C)(C(=O)NC)C5)nc43)cc2)s1 [(1R,3R)-3-[[3-bromo-1-[4-(5-ethyl-1,3,4-thiadiazol-2-yl)phenyl]pyrazolo[3,4-d]pyrimidin-6-yl]amino]-N,1-dimethyl-cyclopentanecarboxamide]"
6.70 to 7.60,,"CNC(=O)[C@]1(C)CC[C@@H](Nc2ncc3c(Br)nn(-c4ccc(-c5nnc(C(=O)N6CCOCC6)s5)cc4)c3n2)C1 [(1R,3R)-3-[[3-bromo-1-[4-[5-(morpholine-4-carbonyl)-1,3,4-thiadiazol-2-yl]phenyl]pyrazolo[3,4-d]pyrimidin-6-yl]amino]-N,1-dimethyl-cyclopentanecarboxamide]"
6.70 to 7.60,,"CCS(=O)(=O)N1Cc2ccc(-n3nc(Br)c4cnc(N[C@@H]5CC[C@@](C)(C(=O)NC)C5)nc43)cc2C1 [(1R,3R)-3-[[3-bromo-1-(2-ethylsulfonyl-isoindolin-5-yl)pyrazolo[3,4-d]pyrimidin-6-yl]amino]-N,1-dimethyl-cyclopentane-carboxamide]"
6.70 to 7.60,,"CNC(=O)[C@]1(C)CC[C@@H](Nc2ncc3c(Br)nn(-c4ccc(-c5nnc(CC(C)O)o5)cc4)c3n2)C1 (stereo partly drawn) [(1R,3R)-3-[[3-bromo-1-[4-[5-(2-hydroxy-propyl)-1,3,4-oxadiazol-2-yl]phenyl]pyrazolo [3,4-d]pyrimidin-6-yl]amino]-N,1-dimethyl-cyclopentanecarboxamide]"

# More lines, now with the values behind:
Structure (SMILES),pIC50 [1],pIC50 [2]
"CNC(=O)[C@@H]1CC[C@@H](Nc2ncc3c(Br)nn(-c4ccc(N5CCOCC5)c(C#N)c4)c3n2)C1 [(1R,3R)-3-((3-bromo-1-(3-cyano-4-morpholinophenyl)-1H-pyrazolo[3,4-d]pyrimidin-6-yl)amino)-N-methylcyclo-pentane-1-carboxamide]",6.00 to 6.30,
"CNC(=O)[C@]1(C)CC[C@@H](Nc2ncc3c(Br)nn(-c4cc(CS(C)(=O)=O)c5ncccc5c4)c3n2)C1 [(1R,3R)-3-[[3-bromo-1-[8-(methylsulfonyl-methyl)-6-quinolyl]pyrazolo[3,4-d]pyrimidin-6-yl]amino]-N,1-dimethyl-cyclopentanecarboxamide]",6.70 to 7.60,
"CNC(=O)[C@]1(C)CC[C@@H](Nc2ncc3c(Br)nn(-c4cc(Cl)cc(C(=O)N5CCNCC5)c4)c3n2)C1 [(1R,3R)-3-[[3-bromo-1-[3-chloro-5-(piperazine-1-carbonyl)phenyl]pyrazolo [3,4-d]pyrimidin-6-yl]amino]-N,1-dimethyl-cyclopentanecarboxamide]",6.70 to 7.60,
"CNC(=O)[C@]1(C)CC[C@@H](Nc2ncc3c(Br)nn(-c4cc(NC(=O)CN)c5ncccc5c4)c3n2)C1 [(1R,3R)-3-[[1-[8-[(2-aminoacetyl)amino]-6-quinolyl]-3-bromo-pyrazolo[3,4-d]pyrimidin-6-yl]amino]-N,1-dimethyl-cyclopentanecarboxamide]",6.70 to 7.60,
"CNC(=O)[C@]1(C)CC[C@@H](Nc2ncc3c(Br)nn(-c4cc(C#N)c5ncccc5c4)c3n2)C1 (single isomer, unassigned) [Example 23]",,> 7.60
"NCCc1cc(-n2nc(Br)c3cnc(NC4CC(O)C4)nc32)cc2cccnc12 (stereo not shown) [3-[[1-[8-(2-aminoethyl)-6-quinolyl]-3-bromo-pyrazolo[3,4-d]pyrimidin-6-yl]amino] cyclobutanol]",6.70 to 7.60,
"N#Cc1cc(-n2nc(Br)c3cnc(N[C@@H]4CC[C@@H](C(=O)N[C@@H]5CNC[C@@H]5F)C4)nc32)cc2cccnc12 [(1R,3R)-3-((3-bromo-1-(8-cyanoquinolin-6-yl)-1H-pyrazolo[3,4-d]pyrimidin-6-yl)amino)-N-((3R,4S)-4-fluoropyrrolidin-3-yl)cyclo-pentane-1-carboxamide]",> 7.60,
"COCCNC(=O)[C@@H]1CC[C@@H](Nc2ncc3c(Br)nn(-c4ccc5nccnc5c4)c3n2)C1 [(1R,3R)-3-((3-bromo-1-(quinoxalin-6-yl)-1H-pyrazolo[3,4-d]pyrimidin-6-yl)amino)-N-(2-methoxyethyl)cyclopentane-1-carboxamide]",6.70 to 7.60,
"CNC(=O)[C@]1(C)CC[C@@H](Nc2ncc3c(Br)nn(-c4cc(CCN)c5ncccc5c4)c3n2)C1 [Example 32, (1R,3R)-3-((1-(8-(2-aminoethyl)quinolin-6-yl)-3-bromo-1H-pyrazolo[3,4-d]pyrimidin-6-yl)amino)-N,1-dimethylcyclopentane-1-carboxamide; 2,2,2-trifluoroacetic acid]",,> 7.60
CNC(=O)[C@]1(C)CC[C@@H](Nc2ncc3c(Br)nn(-c4ccc(-c5nnc(C)s5)c(F)c4)c3n2)C1,> 7.60,
"CC(CNC(=O)[C@@H]1CC[C@@H](Nc2ncc3c(Br)nn(-c4ccc5ncccc5c4)c3n2)C1)N1CCCC1 (stereo partly drawn) [(1R,3R)-3-((3-bromo-1-(quinolin-6-yl)-1H-pyrazolo[3,4-d]pyrimidin-6-yl)amino)-N-(2-(pyrrolidin-1-yl)propyl)cyclopentane-1-carboxamide]",6.70 to 7.60,
"CNC(=O)[C@]1(C)CC[C@@H](Nc2ncc3c(Br)nn(-c4cc(C5(CN)CC5)c5ncccc5c4)c3n2)C1 [(1R,3R)-3-[[1-[8-[1-(aminomethyl)cyclo-propyl]-6-quinolyl]-3-bromo-pyrazolo [3,4-d]pyrimidin-6-yl]amino]-N,1-dimethyl-cyclopentanecarboxamide]",6.70 to 7.60,
"COC[C@H](C)NC(=O)[C@@H]1CCC[C@@H](Nc2ncc3c(Br)nn(-c4ccc5ncccc5c4)c3n2)C1 [(1R,3R)-3-((3-bromo-1-(quinolin-6-yl)-1H-pyrazolo[3,4-d]pyrimidin-6-yl)amino)-N-((S)-1-methoxypropan-2-yl)cyclohexane-1-carboxamide]",6.00 to 6.30,
"O[C@H]1CCC[C@@H]1Nc1ncc2c(Br)nn(-c3cc(F)c4ncccc4c3)c2n1 [(1S,2S)-2-[[3-bromo-1-(8-fluoro-6-quinolyl)pyrazolo[3,4-d]pyrimidin-6-yl]amino] cyclopentanol]",6.70 to 7.60,
"CNC(=O)[C@]1(C)CC[C@@H](Nc2ncc3c(Br)nn(-c4ccc(C#N)c(OCC5(F)CNC5)c4)c3n2)C1 [(1R,3R)-3-[[3-bromo-1-[4-cyano-3-[(3-fluoroazetidin-3-yl)methoxy]phenyl]pyrazolo[3,4-d]pyrimidin-6-yl]amino]-N,1-dimethyl-cyclopentanecarboxamide]",6.70 to 7.60,
